Results reported in US20210137948A1, “TREATMENT OF INFECTIONS CAUSED BY NEISSERIA GONOCOCCUS USING A HALOGENATED SALICYLANILIDE” (priority 2018, published 2021).
Converted amounts (≈) assume the structure as drawn. Like-named read-outs stand apart in the source and are kept apart here.

Columns and labels:
rats = conditions: cited from earlier work
mice = conditions: cited from earlier work
[1] = tested on: Neisseria gonorrhoeae CDC panel consisting of 48 isolates; assay: Agar dilution MIC, CDC panel of 48 isolates (Example 2); format: cell-based; conditions: for MIC: Neisseria gonorrhoeae, read-out: Minimal inhibitory concentration
Experimental: Neisseria gonorrhoeae (Neisseria gonocossus) were tested for antimicrobial susceptibility using agar dilution as described by the Clinical and Laboratory Standards Institute (CLSI), see reference (4).
The concentrations tested for each compound encompass the reported interpretive breakpoints and consist of 8 or more doubling dilutions, ensuring that there is one dilution below the lowest value of QC.
GC agar base +1% defined growth supplement.
Initial screening strains: Neisseria gonorrhoeae CDC panel consisting of 48 isolates. The strains were provided by Clinical and Environmental Microbiology Branch, Division of Healthcare Quality Promotion, CDC (Atlanta, US).
Dilution scheme for reference method: Prepare intermediate 100× antimicrobial agent solutions by making successive serial twofold dilutions. Then, add one part of the 100× antimicrobial solution to […] of molten agar. Plates containing no antimicrobial agent solutions are made for use as growth controls. It is important that no longer than one hour elapses between the time that the stock solution is thawed, the dilutions are prepared and added to the base medium and the plates are poured, see reference (5).
• Add appropriate dilutions of antimicrobial solution to molten test agars that have been allowed to equilibrate in a water bath to 50° C. • Mix the agar and antimicrobial solution thoroughly and pour (20 mL) into Petri dishes on a level surface. Pour quickly after mixing to prevent cooling and partial solidification in the mixing container. Avoid generating bubbles when mixing. • Allow the agar to solidify at room temperature and store them in sealed plastic bags at 2 to 8° C. for up to five days. Preferably use with 24 hours. • Allow plates stored at 2 to 8° C. to equilibrate to room temperature before use. Make certain that the agar surface is dry before inoculating the plates. If necessary, place the plates in an incubator or laminar flow hood for approximately 30 minutes with their lids ajar to hasten drying of the agar surface.
Inoculum preparation: Prepare a standardized inoculum for the agar dilution method by suspending isolated colonies of Neisseria gonorrhoeae selected from an 18-24 hour-old chocolate agar plate directly in Mueller Hinton Broth (MHB) to achieve the density equivalent to a 0.5 McFarland standard and adjusted to obtain a cell density of ˜1-2×10^8 CFU/mL. For N. gonorrhoeae, the McFarland solutions are made at a reading of ˜0.80 in densitometer (Grant Instruments DEN-1B Densitometer) because these values have been evaluated and correspond to the desired CFU/mL count.
Dilution of inoculum suspension: Cultures adjusted to the 0.5 McFarland standard contain approximately 1 to 2×10^8 CFU/mL with most species, and the final inoculum required is 10^4 CFU per spot. When using replicators with 3-mm pins that deliver ˜2.5 μL, dilute the 0.5 McFarland suspension 1:10 in sterile MHB to obtain a concentration of 10^7 CFU/mL. The final inoculum on the agar will be approximately 10^4 CFU per spot. Use the adjusted suspensions for final inoculation within 60 minutes of preparation, see reference (5).
The following procedure was followed: • Arrange the tubes containing the adjusted and diluted bacterial suspensions (10^7 CFU/mL) in order in a rack. Place an aliquot of each well-mixed suspension into the corresponding well in the replicator inoculum block (if being used). • Mark the agar plates for orientation of the inoculum spots. • Apply an aliquot of each inoculum (2.5 μL) to the agar surface, either with an inocula-replicating device or pipette, to obtain a final concentration of ˜10^4 CFU/spot. • Inoculate a growth-control plate (no antimicrobial agent) first and then, starting with the lowest concentration, inoculate the plates containing the different antimicrobial concentrations. […]

Structure (SMILES): Cc1cc(C(C#N)c2ccc(Cl)cc2)c(Cl)cc1NC(=O)c1cc(I)cc(I)c1O (stereo not drawn) [Closantel, closantel]
- LD50, median (rats; p.o., median of the studies): 302 mg/kg
- LD50 (rats; p.o.): 262 to 342 mg/kg
- LD50 (rats; s.c.): 67 mg/kg
- LD50 (mice; i.m.): 57 mg/kg
- LD50 (mice; p.o.): 331 mg/kg
- MIC ([1]; Neisseria gonorrhoeae strain CDC # 165): 8 µg/mL (≈ 12.1 µM)
- MIC ([1]; Neisseria gonorrhoeae strain CDC # 166): ≤ 0.25 µg/mL
- MIC ([1]; Neisseria gonorrhoeae strain CDC # 167): ≤ 0.25 µg/mL
- MIC ([1]; Neisseria gonorrhoeae strain CDC # 169): ≤ 0.25 µg/mL
- MIC ([1]; Neisseria gonorrhoeae strain CDC # 170): ≤ 0.25 µg/mL
- MIC ([1]; Neisseria gonorrhoeae strain CDC # 171): ≤ 0.25 µg/mL
- MIC ([1]; Neisseria gonorrhoeae strain CDC # 172): ≤ 0.25 µg/mL
- MIC ([1]; Neisseria gonorrhoeae strain CDC # 173): 0.5 µg/mL (≈ 0.754 µM)
- MIC ([1]; Neisseria gonorrhoeae strain CDC # 174): ≤ 0.25 µg/mL
- MIC ([1]; Neisseria gonorrhoeae strain CDC # 175): ≤ 0.25 µg/mL
- MIC ([1]; Neisseria gonorrhoeae strain CDC # 176): ≤ 0.25 µg/mL
- MIC ([1]; Neisseria gonorrhoeae strain CDC # 177): 4 µg/mL (≈ 6.03 µM)
- MIC ([1]; Neisseria gonorrhoeae strain CDC # 178): ≤ 0.25 µg/mL
- MIC ([1]; Neisseria gonorrhoeae strain CDC # 179): ≤ 0.25 µg/mL
- MIC ([1]; Neisseria gonorrhoeae strain CDC # 180): ≤ 0.25 µg/mL
- MIC ([1]; Neisseria gonorrhoeae strain CDC # 181): ≤ 0.25 µg/mL
- MIC ([1]; Neisseria gonorrhoeae strain CDC # 182): ≤ 0.25 µg/mL
- MIC ([1]; Neisseria gonorrhoeae strain CDC # 183): ≤ 0.25 µg/mL
- MIC ([1]; Neisseria gonorrhoeae strain CDC # 184): ≤ 0.25 µg/mL
- MIC ([1]; Neisseria gonorrhoeae strain CDC # 185): ≤ 0.25 µg/mL
- MIC ([1]; Neisseria gonorrhoeae strain CDC # 186): ≤ 0.25 µg/mL
- MIC ([1]; Neisseria gonorrhoeae strain CDC # 187): ≤ 0.25 µg/mL
- MIC ([1]; Neisseria gonorrhoeae strain CDC # 188): ≤ 0.25 µg/mL
- MIC ([1]; Neisseria gonorrhoeae strain CDC # 189): ≤ 0.25 µg/mL
- MIC ([1]; Neisseria gonorrhoeae strain CDC # 190): ≤ 0.25 µg/mL
- MIC ([1]; Neisseria gonorrhoeae strain CDC # 191): ≤ 0.25 µg/mL
- MIC ([1]; Neisseria gonorrhoeae strain CDC # 192): ≤ 0.25 µg/mL
- MIC ([1]; Neisseria gonorrhoeae strain CDC # 193): ≤ 0.25 µg/mL
- MIC ([1]; Neisseria gonorrhoeae strain CDC # 194): ≤ 0.25 µg/mL
- MIC ([1]; Neisseria gonorrhoeae strain CDC # 195): ≤ 0.25 µg/mL
- MIC ([1]; Neisseria gonorrhoeae strain CDC # 196): ≤ 0.25 µg/mL
- MIC ([1]; Neisseria gonorrhoeae strain CDC # 198): ≤ 0.25 µg/mL
- MIC ([1]; Neisseria gonorrhoeae strain CDC # 199): ≤ 0.25 µg/mL
- MIC ([1]; Neisseria gonorrhoeae strain CDC # 200): ≤ 0.25 µg/mL
- MIC ([1]; Neisseria gonorrhoeae strain CDC # 201): ≤ 0.25 µg/mL
- MIC ([1]; Neisseria gonorrhoeae strain CDC # 202): ≤ 0.25 µg/mL
- MIC ([1]; Neisseria gonorrhoeae strain CDC # 203): ≤ 0.25 µg/mL
- MIC ([1]; Neisseria gonorrhoeae strain CDC # 204): 0.5 µg/mL (≈ 0.754 µM)
- MIC ([1]; Neisseria gonorrhoeae strain CDC # 205): ≤ 0.25 µg/mL
- MIC ([1]; Neisseria gonorrhoeae strain CDC # 206): ≤ 0.25 µg/mL
- MIC ([1]; Neisseria gonorrhoeae strain CDC # 207): ≤ 0.25 µg/mL
- MIC ([1]; Neisseria gonorrhoeae strain CDC # 208): ≤ 0.25 µg/mL
- MIC ([1]; Neisseria gonorrhoeae strain CDC # 209): ≤ 0.25 µg/mL
- MIC ([1]; Neisseria gonorrhoeae strain CDC # 210): ≤ 0.25 µg/mL
- MIC ([1]; Neisseria gonorrhoeae strain CDC # 211): ≤ 0.25 µg/mL
- MIC ([1]; Neisseria gonorrhoeae strain CDC # 212): ≤ 0.25 µg/mL
- MIC ([1]; Neisseria gonorrhoeae strain CDC # 213): ≤ 0.25 µg/mL
- MIC ([1]; Neisseria gonorrhoeae strain CDC # 214): ≤ 0.25 µg/mL
- in vitro activity (in words) ([1]; against N. gonococcus (N. gonorrhoeae), Example 2 conclusion): Good in vitro activity
